ChEMBL document CHEMBL1156642, “Discovery of betamethasone 17alpha-carbamates as dissociated glucocorticoid receptor modulators in the rat” (Bioorg Med Chem, 2008)

Tests used:
[1] = Transactivation activity of glutamine synthase in rat skeletal muscle cells; format: cell-based
[2] = biological target: T1, Progesterone receptor (Homo sapiens, UniProt P06401); assay: Inhibition of human progesterone receptor
T1 sequence (P06401 whole entry): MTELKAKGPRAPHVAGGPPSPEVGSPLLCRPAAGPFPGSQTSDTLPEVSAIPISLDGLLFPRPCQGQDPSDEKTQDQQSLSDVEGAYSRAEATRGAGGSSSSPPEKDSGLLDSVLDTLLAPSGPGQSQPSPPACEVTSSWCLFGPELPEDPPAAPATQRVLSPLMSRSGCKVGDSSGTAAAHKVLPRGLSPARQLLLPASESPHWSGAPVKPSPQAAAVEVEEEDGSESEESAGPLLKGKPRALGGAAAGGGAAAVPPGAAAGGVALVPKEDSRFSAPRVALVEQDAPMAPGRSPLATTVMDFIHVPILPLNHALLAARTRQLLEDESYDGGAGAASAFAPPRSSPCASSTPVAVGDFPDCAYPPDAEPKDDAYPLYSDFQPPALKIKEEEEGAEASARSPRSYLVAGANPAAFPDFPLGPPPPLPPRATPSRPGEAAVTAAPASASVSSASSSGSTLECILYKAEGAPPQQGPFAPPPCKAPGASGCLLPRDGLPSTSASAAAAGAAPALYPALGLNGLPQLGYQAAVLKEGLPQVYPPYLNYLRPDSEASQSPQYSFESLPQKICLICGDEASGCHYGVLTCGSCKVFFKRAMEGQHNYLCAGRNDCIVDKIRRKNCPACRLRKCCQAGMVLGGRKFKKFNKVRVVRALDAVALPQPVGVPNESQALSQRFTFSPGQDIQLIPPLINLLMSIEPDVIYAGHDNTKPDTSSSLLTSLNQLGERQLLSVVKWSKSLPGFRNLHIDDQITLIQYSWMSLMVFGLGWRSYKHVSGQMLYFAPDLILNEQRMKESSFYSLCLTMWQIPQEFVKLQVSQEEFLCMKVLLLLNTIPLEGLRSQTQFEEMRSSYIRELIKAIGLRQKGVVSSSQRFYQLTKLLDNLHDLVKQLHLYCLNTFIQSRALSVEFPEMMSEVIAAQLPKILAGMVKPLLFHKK

[3] = biological target: T2, Interstitial collagenase (Homo sapiens) (UniProt P03956); assay: Inhibition of glucocorticoid-mediated human MMP1 expression in PMA stimulated A549 cells assessed as MMP1 protein level by ELISA relative to Dexamethasone; format: cell-based; set-up: scale not given: the % may be the effect or the level left
T2 sequence (whole entry): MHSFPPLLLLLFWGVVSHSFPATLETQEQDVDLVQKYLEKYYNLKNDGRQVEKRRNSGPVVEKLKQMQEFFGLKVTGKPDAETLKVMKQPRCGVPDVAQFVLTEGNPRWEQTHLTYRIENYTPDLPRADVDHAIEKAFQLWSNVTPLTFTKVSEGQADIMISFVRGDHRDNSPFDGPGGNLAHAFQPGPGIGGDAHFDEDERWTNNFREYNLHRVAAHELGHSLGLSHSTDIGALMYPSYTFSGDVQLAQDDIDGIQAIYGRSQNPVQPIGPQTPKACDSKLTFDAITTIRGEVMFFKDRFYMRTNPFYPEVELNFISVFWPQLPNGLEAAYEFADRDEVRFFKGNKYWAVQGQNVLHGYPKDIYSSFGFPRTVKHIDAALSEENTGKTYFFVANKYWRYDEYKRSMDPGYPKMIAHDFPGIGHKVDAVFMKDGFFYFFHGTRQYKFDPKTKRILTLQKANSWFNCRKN

[4] = biological target: T3, Glucocorticoid receptor (Homo sapiens, UniProt P04150)
T3 sequence (P04150 whole entry): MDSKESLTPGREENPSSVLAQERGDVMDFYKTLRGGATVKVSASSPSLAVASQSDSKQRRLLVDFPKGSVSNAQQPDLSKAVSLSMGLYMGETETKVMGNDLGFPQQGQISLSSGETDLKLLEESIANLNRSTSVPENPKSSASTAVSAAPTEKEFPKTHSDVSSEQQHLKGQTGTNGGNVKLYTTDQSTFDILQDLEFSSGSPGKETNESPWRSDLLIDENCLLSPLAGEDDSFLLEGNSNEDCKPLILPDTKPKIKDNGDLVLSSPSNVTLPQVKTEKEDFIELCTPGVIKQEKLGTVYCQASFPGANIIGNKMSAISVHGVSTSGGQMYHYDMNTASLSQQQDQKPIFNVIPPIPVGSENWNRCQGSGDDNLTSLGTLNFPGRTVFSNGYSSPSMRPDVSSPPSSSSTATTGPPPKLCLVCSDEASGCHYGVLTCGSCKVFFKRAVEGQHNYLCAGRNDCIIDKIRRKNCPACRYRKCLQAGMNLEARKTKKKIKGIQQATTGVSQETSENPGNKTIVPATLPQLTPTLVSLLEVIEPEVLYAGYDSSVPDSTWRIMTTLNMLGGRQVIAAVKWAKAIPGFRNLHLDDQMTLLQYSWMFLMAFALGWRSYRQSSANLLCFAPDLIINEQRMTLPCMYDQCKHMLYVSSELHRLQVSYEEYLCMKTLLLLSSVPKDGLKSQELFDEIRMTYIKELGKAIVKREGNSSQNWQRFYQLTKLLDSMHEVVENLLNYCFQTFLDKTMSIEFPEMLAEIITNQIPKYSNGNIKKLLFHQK
Description: Inhibition of human glucocorticoid receptor

[5] = organism: Rattus norvegicus; assay: Transactivation activity of glutamine synthase in rat skeletal muscle cells relative to Dexamethasone; format: cell-based

Row | Compound | EC50 [1] [nM] | IC50 [2] [nM] | Activity [3] [%] | IC50 [4] [nM] | Activity [5] [%]
1 | C[C@H]1C[C@H]2[C@@H]3CCC4=CC(=O)C=C[C@]4(C)[C@@]3(F)[C@@H](O)C[C@]2(C)[C@@]1(OC(=O)NC(C)(C)CC(C)(C)C)C(=O)CO | 223 | > 1000 | 80.3 | 5.7 | 50
2 | C[C@H]1C[C@H]2[C@@H]3CCC4=CC(=O)C=C[C@]4(C)[C@@]3(F)[C@@H](O)C[C@]2(C)[C@@]1(OC(=O)NC12CC3CC(CC(C3)C1)C2)C(=O)CO |  |  | 84.1 | 5.8 | 
3 | C[C@H]1C[C@H]2[C@@H]3CCC4=CC(=O)C=C[C@]4(C)[C@@]3(F)[C@@H](O)C[C@]2(C)[C@@]1(OC(=O)NC(C)(C)C)C(=O)CO | 0.37 |  | 94 | 2.4 | 64
4 | CCCCNC(=O)O[C@]1(C(=O)CO)[C@@H](C)C[C@H]2[C@@H]3CCC4=CC(=O)C=C[C@]4(C)[C@@]3(F)[C@@H](O)C[C@@]21C |  |  | 98 | 2.8 | 31.3
5 | CCCCCNC(=O)O[C@]1(C(=O)CO)[C@@H](C)C[C@H]2[C@@H]3CCC4=CC(=O)C=C[C@]4(C)[C@@]3(F)[C@@H](O)C[C@@]21C | 0.4 |  | 97.5 | 2.1 | 60.3
6 | C[C@H](NC(=O)O[C@]1(C(=O)CO)[C@@H](C)C[C@H]2[C@@H]3CCC4=CC(=O)C=C[C@]4(C)[C@@]3(F)[C@@H](O)C[C@@]21C)c1ccccc1 | 0.6 | 176 | 93 | 1.3 | 49
7 | C[C@H]1C[C@H]2[C@@H]3CCC4=CC(=O)C=C[C@]4(C)[C@@]3(F)[C@@H](O)C[C@]2(C)[C@@]1(OC(=O)NCCC(C)(C)C)C(=O)CO | 576 |  | 56.3 | 12.3 | 61.8
8 | CC(C)NC(=O)O[C@]1(C(=O)CO)[C@@H](C)C[C@H]2[C@@H]3CCC4=CC(=O)C=C[C@]4(C)[C@@]3(F)[C@@H](O)C[C@@]21C |  |  | 105 | 21.5 | 26
